Experimental data from US8134015B2, “Compound inhibiting in vivo phosphorous transport and medicine containing the same” (Kyowa Hakko Kirin Co., Ltd., priority 2003, dated 2012).

These compounds were tested against T1, rat NaPi-2b (Rattus norvegicus, UniProt Q9JJ09) (assay: Sodium-dependent phosphate uptake of Xenopus oocytes which expressed NaPi-2b (32P)). Settings: Xenopus oocytes expressing rat NaPi-2b, 32P radioactive phosphorus; read-out: IC50 (phosphate uptake inhibitory activity).
T1 construct: expressed in transfected cells; host or cells: Xenopus oocytes injected with cRNA
T1 sequence (Q9JJ09 1-695): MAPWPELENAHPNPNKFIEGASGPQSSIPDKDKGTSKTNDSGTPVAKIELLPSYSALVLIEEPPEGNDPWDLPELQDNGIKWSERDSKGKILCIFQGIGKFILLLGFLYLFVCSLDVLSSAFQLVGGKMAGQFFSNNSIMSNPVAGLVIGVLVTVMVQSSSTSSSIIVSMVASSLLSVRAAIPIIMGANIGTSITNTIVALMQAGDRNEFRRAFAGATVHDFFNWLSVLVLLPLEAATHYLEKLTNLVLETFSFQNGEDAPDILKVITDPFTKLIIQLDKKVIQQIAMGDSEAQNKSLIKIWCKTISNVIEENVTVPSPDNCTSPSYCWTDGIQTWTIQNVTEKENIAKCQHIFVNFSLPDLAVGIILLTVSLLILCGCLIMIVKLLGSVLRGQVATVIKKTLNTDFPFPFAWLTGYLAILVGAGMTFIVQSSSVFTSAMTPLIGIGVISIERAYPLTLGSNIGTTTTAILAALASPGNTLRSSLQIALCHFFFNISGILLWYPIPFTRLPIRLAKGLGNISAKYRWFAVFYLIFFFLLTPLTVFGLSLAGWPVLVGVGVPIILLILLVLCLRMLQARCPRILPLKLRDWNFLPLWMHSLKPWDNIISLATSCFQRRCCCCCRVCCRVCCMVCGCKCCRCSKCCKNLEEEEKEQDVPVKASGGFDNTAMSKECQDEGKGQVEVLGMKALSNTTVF
Format: cell-based
How it was run: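 Rat small-intestine NaPi-2b cRNA injected into Xenopus oocytes, expressed for 2 days. Sodium-dependent phosphate uptake measured with 32P; % inhibition at 300 and 100 μM taken from the same inhibition curve.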

SMILES	IC50 [µM]
COc1ccc(C(=O)Nc2ccccc2C(=O)N/N=C/c2cc(C)c(O)c(C)c2)cc1OC [Compound 36, N-[2-(4-Hydroxy-3,5-dimethyl-benzylidene-hydrazinocarbonyl)-phenyl]-3,4-dimethoxy-benzamide]	4.04
CN(CCO)Cc1ccc(C(=O)Nc2ccc(Cl)cc2C(=O)N/N=C/c2ccc(O)cc2)cc1 [Compound 421, N-[4-Chloro-2-(4-hydroxy-benzylidene-hydrazinocarbonyl)-phenyl]-4-{[(2-hydroxy-ethyl)-methyl-amino]-methyl}-benzamide]	29.6
Cc1csc(NC(=O)c2cccc(CSCCCO)c2)c1C(=O)N/N=C/c1ccc(Cl)c(C(F)(F)F)c1 [Compound 561, N-[3-(4-Chloro-3-trifluoromethyl-benzylidene-hydrazinocarbonyl)-4-methyl-thiophen-2-yl]-3-(3-hydroxy-propylsulfanylmethyl)-benzamide]	0.31
COc1ccc(C(=O)Nc2ccc(Br)cc2C(=O)N/N=C/c2cc(C)c(C)o2)cc1OC [Compound 202, N-[4-Bromo-2-(4,5-dimethyl-furan-2-ylmethylene-hydrazinocarbonyl)-phenyl]-3,4-dimethoxy-benzamide]	3.14
COc1ccc(NC(=O)c2cccc(CSCC(O)CO)c2)c(C(=O)N/N=C/c2ccc(C)cc2)c1 (stereo not shown) [Compound 1018, 3-(2,3-Dihydroxy-propylsulfanylmethyl)-N-[4-methoxy-2-(4-methyl-benzylidene-hydrazinocarbonyl)-phenyl]-benzamide]	0.92
Cc1ccc(/C=N/NC(=O)c2cc(I)ccc2NC(=O)c2cccc(CN3CCC(N4CCCCC4)CC3)c2)cc1 [Compound 485, 3-[1,4′]Bipiperidinyl-1′-ylmethyl-N-[4-iodo-2-(4-methyl-benzylidene-hydrazinocarbonyl)-phenyl]-benzamide]	< 3
CCN(CC)CCN(C)Cc1cccc(C(=O)Nc2ccc(I)cc2C(=O)N/N=C/c2ccc(C)c(C)c2)c1 [Compound 476, 3-{[(2-Diethylamino-ethyl)-methyl-amino]-methyl}-N-[2-(3,4-dimethyl-benzylidene-hydrazinocarbonyl)-4-iodo-phenyl]-benzamide]	< 3
Cc1cccc(/C=N/NC(=O)c2cc(Cl)ccc2NC(=O)c2cccc(CSc3nc[nH]n3)c2)c1 [Compound 391, N-[4-Chloro-2-(3-methyl-benzylidene-hydrazinocarbonyl)-phenyl]-3-(1H-[1,2,4]triazol-3-ylsulfanylmethyl)-benzamide]	1.02
O=C(Nc1ccccc1C(=O)N/N=C/c1cccc(F)c1)c1ccccc1 [Compound 226, N-[2-(3-Fluoro-benzylidene-hydrazinocarbonyl)-phenyl]-benzamide]	1.69
CCN(CC)CCN(C)Cc1cccc(C(=O)Nc2ccc(N3CCOCC3)cc2C(=O)N/N=C/c2ccc(C)c(C)c2)c1 [Compound 1074, 3-{[(2-Diethylamino-ethyl)-methyl-amino]-methyl}-N-[2-(3,4-dimethyl-benzylidene-hydrazinocarbonyl)-4-morpholin-4-yl-phenyl]-benzamide]	1.54
O=C(Nc1ccc(Br)cc1C(=O)N/N=C/c1ccc(F)cc1)c1ccc(CN2CCN(CC(=O)N3CCOCC3)CC2)cc1 [Compound 730, N-[4-Bromo-2-(4-fluoro-benzylidene-hydrazinocarbonyl)-phenyl]-4-[4-(2-morpholin-4-yl-2-oxo-ethyl)-piperazin-1-ylmethyl]-benzamide]	15.7
CCSCCNCc1ccc(C(=O)Nc2ccc(Br)cc2C(=O)N/N=C/c2cccc(F)c2)cc1 [Compound 768, N-[4-Bromo-2-(3-fluoro-benzylidene-hydrazinocarbonyl)-phenyl]-4-[(2-ethylsulfanyl-ethylamino)-methyl]-benzamide]	10.6
CCN(CC)CCNCc1cccc(C(=O)Nc2scc(C)c2C(=O)N/N=C/c2ccc(F)cc2)c1 [Compound 583, 3-[(2-Diethylamino-ethylamino)-methyl]-N-[3-(4-fluoro-benzylidene-hydrazinocarbonyl)-4-methyl-thiophen-2-yl]-benzamide]	< 3
